In assay [1] the target is T1, AGE-BSA (Bos taurus, UniProt P02769).
T1 construct: Bovine serum albumin (fraction V) (BSA); from tissue; host or cells: bovine serum (fraction V); glycated in house with 1.6 M glucose at 37 °C for 16 weeks
As to the kind of experiment: In-vitro AGE breaking activity by ELISA. To be noted: 37° C., 24 hours. The class given is biochemical, Bovine. As for the experimental part: AGE breaking activity has been confirmed by the screening procedure as mentioned below:
Methods of experiment: Elisa (Enzyme Linked Immunosorbent Assay)
160 mg/ml of protein, bovine serum albumin, BSA and 1.6M glucose sugar were dissolved in phosphate buffered saline, PBS. Sodium azide was added at 0.02% concentration as a preservative. The solution was filtered asceptically through a […] filter and kept for aging at 37° C. for 16 weeks. After 16 weeks the solution was dialyzed against PBS, aliquoted and stored at −20° C.
To determine the AGE breaking activity, 10 μg/ml of the 16 weeks AGE-BSA was incubated with different concentrations of the test compounds at 37° C. for 24 hours and AGE breaking activity of the test compounds by ELISA was determined.
ELISA was performed as follows
1. Different concentrations of 16 weeks AGE-BSA were coated on a microtiter plate as standard. Each concentration is coated in triplicates.
2. The test samples were coated on microtiter plate at a concentration of 5 ng to 20 ng per well in triplicates
3. The plate was incubated at 37° C. for one hour.
4. After incubation the plate was washed with PBST (PBS with 0.05% Tween 20).
5. Blocking with 5% skimmed milk in PBS at 37° C. for one hour was done.
6. The plate was washed with PBST.
7. Primary antibody against AGE-BSA was added and the plate is incubated at 37° C. for one hour.
8. The plate was washed with PBST
9. Secondary antibody anti rabbit HRPO (Horse-Radish Per Oxidase) conjugate was added and the plate is incubated at 37° C. for one hour.
10. The plate was washed with PBST.
11. Colour development with OPD (orthophenylenediamine dihydrochloride) and hydrogen peroxide was done.
12. OD (optical density) at (450 nm reading-620 nm reading) was measured after incubation at 37° C. for 15 minutes with Microplate ELISA Reader
The breaker activity of the compounds were determined by the following formula: [formula]
OD450-620Control=Absorbance of 20 ng AGE-BSA after incubation at 37° C. for 24 hours without test compound
OD450-620Test=Absorbance of 20 ng AGE-BSA after incubation at 37° C. for 24 hours with required concentration of test compound
Using specific examples, the % AGE breaking activity was calculated and recorded in Table 2.
In general terms: An ELISA detects its analyte on a solid surface through an enzyme-linked reagent.

Assay [2] in a line: Free radical scavenging activity on ABTS radical cation. The format is biochemical. As for the experimental part:
This method measures the relative ability of free radical scavenging substances to scavenge the ABTS^.+ i.e. 2,2-Azino-bis-(3-ethyl benzo thiazoline-6-sulfonate) radical cation as compared to a standard amount of standard or free radical scavengers antioxidants. Incubation of ABTS with Peroxidase (metmyoglobin) and hydrogen peroxide results in the production of radical cation ABTS^.+. This species is blue-green in colour and can be detected at 730 nm. Antioxidants or free radical scavengers in the added sample that causes suppression of the color to a degree that is proportional to their concentration.
Preparation of Buffer Solutions
A. Phosphate Citrate Buffer (pH 5.0). 48.5 ml of 0.1M citric acid with sufficient 0.2M disodium hydrogen phosphate to produce 100 ml.
B. Phosphate Buffer Saline (PBS): Dissolve 40.0 g of NaCl, 1.0 g of KCl, 1.0 g of KH2PO4 and 3.05 g of Na2HPO4 in 1 liter milli-Q water. Dilute 200 ml of above solution to 1 liter with milli-Q water (pH 7.4-7.6).
C. 3 μM stock solution of Peroxidase was prepared in phosphate buffer saline pH 7.4(PBS).
D. 1.08 mM stock solution of Hydrogen peroxide was prepared in phosphate buffer saline pH 7.4 (PBS).
Preparation of ABTS Stock Solution
1 tablet (10 mg) was dissolved in phosphate citrate buffer (pH 5.0).
Preparation of ABTS Working Solution
5.0 ml of ABTS stock solution was diluted with PBS to 20 ml.
Preparation of Horse Radish Peroxidase Stock Solution
320 μg of the enzyme was dissolved in 2.5 ml of PBS.
Preparation of Hydrogen Peroxide (1.08 mM) Solution
12 μl of Hydrogen Peroxide (30% w/v) was diluted to 100 ml with PBS. […]
Preparation of ABTS Radical Stock Solution
To 18 ml of ABTS stock solution, 100 μl of Horseradish Peroxidase stock solution was added.
As soon as 1.5 ml of hydrogen peroxide solution was added to the above solution, blue-green colour of the ABTS radicals appeared. This solution was incubated at 30° C. for 30 min.
Preparation of Control Solution
980 μl of ABTS radical stock solution was added to an eppendorf tube. To it was added 100 μl of various PBS solution.
Preparation of test Solution
980 μl of ABTS radical stock solutions were added to different eppendorf tubes. To it were added 100 μl of various concentrations of drug solution.
Measurement of Absorbance (O.D)
The absorbance of control and test samples was recorded immediately at 730 nm taking PBS as blank.
Calculation: The percent antioxidant activity was calculated according to the formula. % Antioxidant activity=[O.D of test sample/O.D of control*100]−100.

The values below come from patent US20020103228A1, “Composition and method for use of pyridinium derivatives in cosmetic and therapeutic applications” (TORRENT PHARMACEUTICALS LTD., priority 1999, published 2002).

T1 sequence (P02769 25-607): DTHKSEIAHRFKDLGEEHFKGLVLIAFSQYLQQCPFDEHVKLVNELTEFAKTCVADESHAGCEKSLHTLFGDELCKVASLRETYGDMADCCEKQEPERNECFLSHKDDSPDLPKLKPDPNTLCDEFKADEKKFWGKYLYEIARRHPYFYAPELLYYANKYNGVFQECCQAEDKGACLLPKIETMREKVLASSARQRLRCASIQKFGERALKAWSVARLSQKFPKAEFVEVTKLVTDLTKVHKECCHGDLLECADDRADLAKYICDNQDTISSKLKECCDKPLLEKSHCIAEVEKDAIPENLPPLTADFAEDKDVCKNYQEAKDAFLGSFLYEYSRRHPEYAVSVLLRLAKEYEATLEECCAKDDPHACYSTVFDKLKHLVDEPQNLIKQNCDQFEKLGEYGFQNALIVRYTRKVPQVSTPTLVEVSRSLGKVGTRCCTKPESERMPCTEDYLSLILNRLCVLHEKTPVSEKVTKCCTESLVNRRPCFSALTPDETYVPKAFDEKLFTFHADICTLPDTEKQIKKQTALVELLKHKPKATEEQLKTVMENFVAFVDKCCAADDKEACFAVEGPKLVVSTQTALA

For the compound `O=C(C[n+]1cccc(C(=O)NNC(=O)c2ccc[n+](CC(=O)c3ccccc3)c2)c1)c1ccccc1.[Br-].[Br-]` [Compound 1, N,N′-bis[3-carbonyl-1-(2-phenyl-2-oxoethyl)-pyridinium]hydrazine dibromide], in assay [1] (5 mM test compound), the “% Breakage” value stood at 13%.

For the compound `CCOC(=O)C[n+]1cccc(C(=O)NCCOC(=O)c2ccccc2)c1.[Br-]` [Compound 7, 1-(2-ethoxy-2-oxoethyl)-3-(2-(benzoyloxy)ethylaminocarbonyl)pyridinium bromide], the “% Breakage” value in assay [1] (20 mM test compound) came out at 36%.

On to `O=C(NCCOC(=O)c1ccccc1)c1ccc[n+](CC(=O)c2ccc(Cl)cc2Cl)c1.[Br-]` [Compound 8, 1-(2-(2′,4′-dichlorophenyl)-2-oxoethyl)-3-(2-(benzoyloxy)ethylamino-carbonyl)pyridinium bromide], for which the “Relative Free Radical Scavenging Activity (%) on ABTS” value was 40.8% in assay [2] (11.5 μM); 53.7% in assay [2] (23.0 μM); 72.6% in assay [2] (46.0 μM); 81.2% in assay [2] (92.5 μM); 100% in assay [2] (925 μM).

In the case of `CC(=O)OCCOC(=O)c1ccc[n+](CC(=O)c2ccccc2)c1.[Br-]` [Compound 16, 1-(2-phenyl-2-oxoethyl)-3-(2-(acetoxy)ethyloxycarbonyl)pyridinium bromide], the “% Breakage” value in assay [1] (10 mM test compound) came to 16%.

Regarding `O=C(NCCOC(=O)c1ccccc1)c1cc[n+](CC(=O)c2cccs2)cc1.[Br-]` [Compound 18, 1-(2-thien-2′-yl-2-oxoethyl)-4-(2-(benzoyloxy)ethylaminocarbonyl)pyridinium bromide], the “Relative Free Radical Scavenging Activity (%) on ABTS” value in assay [2] (11.5 μM) worked out at 41.8%; in assay [2] (23.0 μM) it was 59.5%; in assay [2] (46.0 μM), 75.2%; in assay [2] (92.5 μM), 91.0%; in assay [2] (925 μM), 100%.

Consider `Cc1ccc(S(=O)(=O)NNC(=O)c2ccc[n+](CC(=O)Nc3ccccc3)c2)cc1.[Cl-]` [Compound 27, 1-(2-phenylamino-2-oxoethyl)-3-((4-methylphenyl)sulfonyl hydrazinocarbonyl)pyridinium chloride], for which the “Relative Free Radical Scavenging Activity (%) on ABTS” value is 43.9% in assay [2] (11.5 μM); 55.5% in assay [2] (23.0 μM); 75.3% in assay [2] (46.0 μM); 99.6% in assay [2] (92.5 μM); 100% in assay [2] (925 μM).

On to `O=C(C[n+]1cccc(C(=O)NNS(=O)(=O)Cc2ccccc2)c1)c1ccccc1.[Br-]` [Compound 31, 1-(2-phenyl-2-oxoethyl)-3-((phenylmethyl)sulfonyl hydrazinocarbonyl)pyridinium bromide], for which the “Relative Free Radical Scavenging Activity (%) on ABTS” value in assay [2] (11.5 μM) was determined as 41.6%; in assay [2] (23.0 μM), 57.7%; in assay [2] (46.0 μM), 66.9%; in assay [2] (92.5 μM) it was 99.2%; in assay [2] (925 μM), 100%.

Take `O=C(CCC1CCCCC1)NNC(=O)c1ccc[n+](CC(=O)c2cccs2)c1.[Br-]` [Compound 34, 1-(2-thien-2′-yl-2-oxoethyl)-3-((2-(1-oxo-3-cyclohexyl)-ethyl)-hydrazinocarbonyl)-pyridinium bromide]: the “Relative Free Radical Scavenging Activity (%) on ABTS” value in assay [2] (11.5 μM) turned out to be 50.3%; in assay [2] (23.0 μM), 53.8%; in assay [2] (46.0 μM), 65.4%; in assay [2] (92.5 μM), 80.4%; in assay [2] (925 μM), 100%.

Regarding `O=C1CCCC(CCNNC(=O)c2ccc[n+](CC(=O)Nc3ccccc3)c2)C1.[Br-]` (stereo not shown) [Compound 35, 1-(2-phenylamino-2-oxoethyl)-3-({2-(1-oxo-3-cyclohexyl)-ethyl}-hydrazinocarbonyl}pyridinium bromide], the “Relative Free Radical Scavenging Activity (%) on ABTS” value in assay [2] (11.5 μM) was determined as 50.5%; in assay [2] (23.0 μM), 63.4%; in assay [2] (46.0 μM), 80.9%; in assay [2] (92.5 μM), 90.6%; in assay [2] (925 μM), 100%.

With `O=C(NCCOC(=O)c1ccccc1)c1ccc[n+](CC(=O)c2cccs2)c1.[Br-]` [Compound 36, 1-(2-thien-2′-yl-2-oxoethyl)-3-[2-(benzoyloxy)ethylaminocarbonyl]-pyridinium bromide], the “Relative Free Radical Scavenging Activity (%) on ABTS” value came to 27.6% in assay [2] (11.5 μM); 59.2% in assay [2] (23.0 μM); 74.2% in assay [2] (46.0 μM); 83.9% in assay [2] (92.5 μM); 100% in assay [2] (925 μM).

Take `O=C=Nc1ccc[n+](CC(=O)c2ccc(Cl)cc2Cl)c1.[Br-]` [Compound 82, 3-Carbonylamino-1-(2-(2,4-dichlorophenyl)-2-oxoethyl)-pyridinium bromide]: the “Relative Free Radical Scavenging Activity (%) on ABTS” value in assay [2] (11.5 μM) was 26.0%; in assay [2] (23.0 μM), 44.3%; in assay [2] (46.0 μM) it was 62.7%; in assay [2] (92.5 μM) it was 75.5%; in assay [2] (925 μM), 100%.

As to `CCCCNC(=O)c1ccc[n+](CC(=O)c2ccc(Cl)cc2Cl)c1.[Br-]` [Compound 97, 1-(2-(2,4-Dichlorophenyl)-2-oxoethyl)-3-(n-butylamino-carbonyl)pyridinium bromide], the “Relative Free Radical Scavenging Activity (%) on ABTS” value in assay [2] (11.5 μM) worked out at 16.5%; in assay [2] (23.0 μM), 27%; in assay [2] (46.0 μM) it was 37.8%; in assay [2] (92.5 μM), 44.5%; in assay [2] (925 μM) it was 97.8%.

As for `O=C(C[n+]1cccc(C(=O)c2ccccc2)c1)c1ccccc1.[Br-]` [Compound 98, 1-(2-Phenyl-2-oxoethyl)-3-(1-phenyl-1-oxomethyl)pyridinium bromide], the “Relative Free Radical Scavenging Activity (%) on ABTS” value in assay [2] (11.5 μM) is 7.1%; in assay [2] (23.0 μM), 26.9%; in assay [2] (46.0 μM) it was 51.1%; in assay [2] (92.5 μM) it was 78.6%; in assay [2] (925 μM), 99.1%.

`NC(=O)c1cccnc1` [Niacinamide, reference compound]: the “Relative Free Radical Scavenging Activity (%) on ABTS” value in assay [2] (11.5 μM) was found to be 0.0%; in assay [2] (23.0 μM), 2.2%; in assay [2] (46.0 μM) it was 3.8%; in assay [2] (92.5 μM), 3.8%; in assay [2] (925 μM), 9.2%.
